In ChEMBL document CHEMBL3865829 (Eur J Med Chem, 2016):

How the values were obtained:
[1] = Antitumor activity against human A549 cells xenografted in BALB/c nude mouse assessed as tumor volume at 10 mg/kg, ig administered via oral gavage once daily for 14 consecutive days measured on day 8 (reference value: 840.07 +/- 205.19 mm3); type: functional
[2] = Cytotoxicity against human A549 cells after 72 hrs by MTT assay; type: functional, cell-based; settings: A549, 72 h
[3] = Ratio of Cmax in Sprague-Dawley rat to IC50 for human A549 cells
[4] = test system: Mus musculus; experiment: Toxicity in nude BALB/c mouse xenografted with human A549 cells assessed as mortality at 10 mg/kg, ig administered via oral gavage once daily for 14 consecutive days measured on day 30; type: organism-based; settings: in vivo
[5] = AUC (0 to infinity) in Sprague-Dawley rat at 20 mg/kg administered via oral gavage as single dose by LCMS analysis; type: ADME, organism-based; design: dose 20 mg/kg, route oral, time infinity; settings: in vivo
[6] = Antitumor activity against human Bel7404 cells xenografted in BALB/c nude mouse assessed as tumor volume at 10 mg/kg, ig administered via oral gavage once daily for 14 consecutive days measured on day 17 (reference value: 747.40 +/- 169.75 mm3); type: functional, BEL-7404
[7] = test system: A549; experiment: Inhibition of mTORC2 in human A549 cells assessed as reduction in AKT phosphorylation at serine473 residues after 30 mins by Western blot analysis; type: cell-based
[8] = test system: Mus musculus; experiment: Toxicity in nude BALB/c mouse xenografted with human A549 cells assessed as body weight at 10 mg/kg, ig administered via oral gavage once daily for 14 consecutive days measured on day 18 (reference value: 27.75 +/- 1.41 g); type: organism-based; settings: in vivo
[9] = test system: Mus musculus; experiment: Toxicity in nude BALB/c mouse xenografted with human A549 cells assessed as body weight at 10 mg/kg, ig administered via oral gavage once daily for 14 consecutive days measured on day 15 (reference value: 27.12 +/- 1.43 g); type: organism-based; settings: in vivo
[10] = Antitumor activity against human A549 cells xenografted in BALB/c nude mouse assessed as tumor volume at 10 mg/kg, ig administered via oral gavage once daily for 14 consecutive days measured on day 15 (reference value: 2071.51 +/- 682.84 mm3); type: functional
[11] = test system: Mus musculus; experiment: Toxicity in nude BALB/c mouse xenografted with human A549 cells assessed as body weight at 10 mg/kg, ig administered via oral gavage once daily for 14 consecutive days measured on day 4 (reference value: 24.77 +/- 0.93 g); type: organism-based; settings: in vivo
[12] = test system: Mus musculus; experiment: Toxicity in nude BALB/c mouse xenografted with human A549 cells assessed as body weight at 10 mg/kg, ig administered via oral gavage once daily for 14 consecutive days measured on day 8 (reference value: 25.66 +/- 1.04 g); type: organism-based; settings: in vivo
[13] = Antitumor activity against human A549 cells xenografted in BALB/c nude mouse assessed as tumor volume at 10 mg/kg, ig administered via oral gavage once daily for 14 consecutive days measured on day 11 (reference value: 1327.66 +/- 404.92 mm3); type: functional
[14] = Time at which maximum plasma concentration stays above in vitro IC50 for human A549 cells in Sprague-Dawley rat at 20 mg/kg, po administered as single dose; type: ADME, organism-based; settings: in vivo
[15] = Antitumor activity against human A549 cells xenografted in BALB/c nude mouse assessed as tumor volume at 10 mg/kg, ig administered via oral gavage once daily for 14 consecutive days measured on day 18 (reference value: 3045.91 +/- 854.27 mm3); type: functional
[16] = Antitumor activity against human A549 cells xenografted in BALB/c nude mouse assessed as tumor volume at 10 mg/kg, ig administered via oral gavage once daily for 14 consecutive days measured on day 1 (reference value: 156.87 +/- 22.32 mm3); type: functional
[17] = Antitumor activity against human Bel7404 cells xenografted in BALB/c nude mouse assessed as tumor volume at 10 mg/kg, ig administered via oral gavage once daily for 14 consecutive days measured on day 1 (reference value: 101.62 +/- 26.48 mm3); type: functional, BEL-7404
[18] = Antitumor activity against human Bel7404 cells xenografted in BALB/c nude mouse assessed as tumor volume at 10 mg/kg, ig administered via oral gavage once daily for 14 consecutive days measured on day 10 (reference value: 425.92 +/- 102.32 mm3); type: functional, BEL-7404
[19] = Potency index, ratio of paclitaxel GI50 to compound GI50 against human NCI60 cells; type: functional
[20] = Antitumor activity against human Bel7404 cells xenografted in BALB/c nude mouse assessed as tumor volume at 10 mg/kg, ig administered via oral gavage once daily for 14 consecutive days measured on day 3 (reference value: 176.17 +/- 57.63 mm3); type: functional, BEL-7404
[21] = test system: Mus musculus; experiment: Toxicity in nude BALB/c mouse xenografted with human A549 cells assessed as body weight at 10 mg/kg, ig administered via oral gavage once daily for 14 consecutive days measured on day 1 (reference value: 24.38 +/- 0.76 g); type: organism-based; settings: in vivo
[22] = test system: A549; experiment: Inhibition of PI3K in human A549 cells assessed as reduction in AKT phosphorylation at threonine308 residues after 30 mins by Western blot analysis; type: cell-based
[23] = Oral bioavailability in Sprague-Dawley rat at 20 mg/kg administered via gavage as single dose by LCMS analysis; type: ADME, organism-based; settings: in vivo
[24] = Antitumor activity against human Bel7404 cells xenografted in BALB/c nude mouse assessed as tumor growth inhibition at 10 mg/kg, ig administered via oral gavage once daily for 14 consecutive days measured on day 29; type: functional; settings: BEL-7404, po, 696 h, read-out: TGI
[25] = Antitumor activity against human A549 cells xenografted in BALB/c nude mouse assessed as tumor growth inhibition at 10 mg/kg, ig administered via oral gavage once daily for 14 consecutive days measured on day 30 relative to control; type: functional; settings: 720 h, read-out: TGI
[26] = Half life in Sprague-Dawley rat at 20 mg/kg administered via oral gavage as single dose by LCMS analysis; type: ADME, organism-based; settings: in vivo
[27] = Cmax in Sprague-Dawley rat at 2 mg/kg, iv by LCMS analysis; type: ADME, organism-based; design: dose 2 mg/kg, route intravenous; settings: in vivo
[28] = test system: A549; experiment: Antitumor activity against human A549 cells xenografted in BALB/c nude mouse assessed as tumor growth inhibition administered ig via oral gavage once daily for 14 consecutive days measured on day 30; type: functional, cell-based
[29] = cells; settings: Homo sapiens, HCT-116, 72 h
[30] = Half life in rat microsomes; type: ADME, Microsome
[31] = Antitumor activity against human Bel7404 cells xenografted in BALB/c nude mouse assessed as tumor volume at 10 mg/kg, ig administered via oral gavage once daily for 14 consecutive days measured on day 14 (reference value: 589.54 +/- 162.22 mm3); type: functional, BEL-7404
[32] = Cmax in Sprague-Dawley rat at 20 mg/kg administered via oral gavage as single dose by LCMS analysis; type: ADME, organism-based; design: dose 20 mg/kg, route oral; settings: in vivo
[33] = Antitumor activity against human A549 cells xenografted in BALB/c nude mouse assessed as tumor volume at 10 mg/kg, ig administered via oral gavage once daily for 14 consecutive days measured on day 4 (reference value: 419.55 +/- 104.72 mm3); type: functional
[34] = Potency index, ratio of camptothecin GI50 to compound GI50 against human NCI60 cells; type: functional
[35] = test system: Mus musculus; experiment: Toxicity in nude BALB/c mouse xenografted with human A549 cells assessed as body weight at 10 mg/kg, ig administered via oral gavage once daily for 14 consecutive days measured on day 11 (reference value: 26.11 +/- 1.06 g); type: organism-based; settings: in vivo
[36] = AUC (0 to infinity) in Sprague-Dawley rat at 2 mg/kg, iv by LCMS analysis; type: ADME, organism-based; design: dose 2 mg/kg, time infinity, route intravenous; settings: in vivo
[37] = Antitumor activity against human Bel7404 cells xenografted in BALB/c nude mouse assessed as tumor volume at 10 mg/kg, ig administered via oral gavage once daily for 14 consecutive days measured on day 7 (reference value: 284.68 +/- 74.36 mm3); type: functional, BEL-7404

Compound: COc1ncc(-c2ccc3nccc(-c4ccc(CN(C)C)cc4)c3c2)cc1NS(=O)(=O)c1ccc(F)cc1F
- Activity [1]: 330.06 mm3
- IC50 [2]: 4.4 nM
- Ratio [3]: >2800
- Activity [4]: Non-Toxic
- AUC(0-inf) [5]: 35600 ng·h/mL
- Activity [6]: 220.21 mm3
- inhibition [7]: Dose-dependent effect
- Activity [8]: 23.92 g
- Activity [9]: 23.42 g
- Activity [10]: 536.2 mm3
- Activity [11]: 24.17 g
- Activity [12]: 24.23 g
- Activity [13]: 432.38 mm3
- Time [14]: 0.5 h
- Activity [15]: 748.11 mm3
- Activity [16]: 149.23 mm3
- Activity [17]: 90.39 mm3
- Activity [18]: 152.31 mm3
- RatioGI50 [19]: 2
- Activity [20]: 123.3 mm3
- Activity [21]: 25.13 g
- inhibition [22]: Dose-dependent effect
- bioavailability [23]: 95%
- inhibition in vivo at 10 mg/kg [24]: 70.6%
- inhibition in vivo at 10 mg/kg [25]: 73.5%
- half-life [26]: 4.41 h
- Cmax [27]: 1000 ng/mL
- TGI [28]: Dose-dependent effect
- IC50 [29]: 3 nM
- half-life [30]: 0.767 h
- Activity [31]: 187.5 mm3
- Cmax [32]: 7120 ng/mL
- Activity [33]: 224.6 mm3
- RatioGI50 [34]: 2
- Activity [35]: 23.77 g
- AUC(0-inf) [36]: 3740 ng·h/mL
- Activity [37]: 135.38 mm3
